Experimental data taken from ChEMBL document CHEMBL4507327 (2021).
The source made the active and inactive calls. The rule behind the calls is not given here.

Assays:
[1] = target: Wee1-like protein kinase (Homo sapiens, UniProt P30291); experiment: Wee1(WEE1LGF1) Takeda global kinase panel
[2] = target: Serine/threonine-protein kinase D2 (Homo sapiens, UniProt Q9BZL6); experiment: PKD2(PRD2LHY1) Takeda global kinase panel
[3] = target: Ephrin type-B receptor 4 (Homo sapiens, UniProt P54760); experiment: EphB4(EPB4LGY1) Takeda global kinase panel
[4] = target: G protein-coupled receptor kinase 4 (Homo sapiens, UniProt P32298); experiment: GRK4(GRK4LGRI) Takeda global kinase panel
[5] = target: Muscarinic acetylcholine receptor M3 (Homo sapiens) (UniProt P20309); settings: Compound concentration 10.0 uM
[6] = target: Non-receptor tyrosine-protein kinase TNK1 (Homo sapiens, UniProt Q13470); experiment: Tnk1(TNK1LGY1) Takeda global kinase panel
[7] = target: Adenosine receptor A3 (Homo sapiens) (UniProt P0DMS8); settings: Compound concentration 10.0 uM
Adenosine receptor A3 (Homo sapiens), sequence (P0DMS8 whole entry): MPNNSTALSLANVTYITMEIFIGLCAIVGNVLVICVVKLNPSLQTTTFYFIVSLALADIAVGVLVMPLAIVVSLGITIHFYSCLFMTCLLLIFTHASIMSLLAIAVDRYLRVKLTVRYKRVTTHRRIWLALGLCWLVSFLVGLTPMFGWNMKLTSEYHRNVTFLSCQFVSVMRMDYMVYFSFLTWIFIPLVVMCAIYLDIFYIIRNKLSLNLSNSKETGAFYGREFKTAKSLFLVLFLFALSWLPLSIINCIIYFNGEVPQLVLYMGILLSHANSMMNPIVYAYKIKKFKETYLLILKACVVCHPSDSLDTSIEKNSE

[8] = target: Aurora kinase B (Homo sapiens, UniProt Q96GD4); experiment: AurB [Aur1(AURBPGE1)] Takeda global kinase panel
[9] = target: Activin receptor type-1 (Homo sapiens, UniProt Q04771); experiment: ALK2(ACV1LGF1) Takeda global kinase panel
[10] = target: Serine/threonine-protein kinase Nek9 (Homo sapiens, UniProt Q8TD19); experiment: Nek9(NEK9LGF1) Takeda global kinase panel
[11] = target: Receptor-interacting serine/threonine-protein kinase 2 (Homo sapiens, UniProt O43353); experiment: RIPK2(RIP2LGI1) Takeda global kinase panel
[12] = target: Mitogen-activated protein kinase 9 (Homo sapiens, UniProt P45984); experiment: JNK2(MAP9LGF1) Takeda global kinase panel
[13] = target: ALK tyrosine kinase receptor (Homo sapiens, UniProt Q9UM73); experiment: ALK(ALK1LGY1) Takeda global kinase panel
[14] = target: Protein-tyrosine kinase 2-beta (Homo sapiens, UniProt Q14289); experiment: PYK2(PT2BLHF1) Takeda global kinase panel
[15] = target: BMP-2-inducible protein kinase (Homo sapiens, UniProt Q9NSY1); experiment: BIKE(BM2KLGY1) Takeda global kinase panel
[16] = target: Interleukin-1 receptor-associated kinase 3 (Homo sapiens, UniProt Q9Y616); experiment: IRAK3(IRK3PFE1) Takeda global kinase panel
[17] = target: Aurora kinase A (Homo sapiens, UniProt O14965); experiment: AurA [Aur2(AURALGF1)] Takeda global kinase panel
[18] = target: Tyrosine-protein kinase BTK (Homo sapiens, UniProt Q06187); experiment: BTK(BTK1CGF1) Takeda global kinase panel
[19] = target: Serine/threonine-protein kinase 32C (Homo sapiens, UniProt Q86UX6); experiment: YANK3(S32CLGI1) Takeda global kinase panel
Serine/threonine-protein kinase 32C, sequence (Q86UX6 whole entry): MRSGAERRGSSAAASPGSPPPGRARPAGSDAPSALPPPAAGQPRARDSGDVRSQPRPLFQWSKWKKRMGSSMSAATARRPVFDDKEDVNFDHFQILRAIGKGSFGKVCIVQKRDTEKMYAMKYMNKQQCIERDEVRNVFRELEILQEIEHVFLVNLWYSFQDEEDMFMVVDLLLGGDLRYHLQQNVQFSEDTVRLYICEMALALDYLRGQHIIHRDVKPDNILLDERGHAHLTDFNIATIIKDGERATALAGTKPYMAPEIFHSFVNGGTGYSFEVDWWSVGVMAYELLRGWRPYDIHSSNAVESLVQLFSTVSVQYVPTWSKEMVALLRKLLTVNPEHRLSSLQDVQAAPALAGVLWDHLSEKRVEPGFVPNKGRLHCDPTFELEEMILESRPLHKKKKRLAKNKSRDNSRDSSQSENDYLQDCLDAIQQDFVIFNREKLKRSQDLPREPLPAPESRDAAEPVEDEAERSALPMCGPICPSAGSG

[20] = target: SRSF protein kinase 1 (Homo sapiens, UniProt Q96SB4); experiment: SRPK1(SRP1IHRL) Takeda global kinase panel
[21] = organism: Homo sapiens; settings: Compound concentration 10.0 uM
[22] = target: Mitogen-activated protein kinase kinase kinase 12 (Homo sapiens, UniProt Q12852); experiment: DLK(M312CGY1) Takeda global kinase panel
[23] = target: T1, 5-hydroxytryptamine receptor 1A (Homo sapiens) (UniProt P08908); settings: Compound concentration 10.0 uM
T1 sequence (whole entry): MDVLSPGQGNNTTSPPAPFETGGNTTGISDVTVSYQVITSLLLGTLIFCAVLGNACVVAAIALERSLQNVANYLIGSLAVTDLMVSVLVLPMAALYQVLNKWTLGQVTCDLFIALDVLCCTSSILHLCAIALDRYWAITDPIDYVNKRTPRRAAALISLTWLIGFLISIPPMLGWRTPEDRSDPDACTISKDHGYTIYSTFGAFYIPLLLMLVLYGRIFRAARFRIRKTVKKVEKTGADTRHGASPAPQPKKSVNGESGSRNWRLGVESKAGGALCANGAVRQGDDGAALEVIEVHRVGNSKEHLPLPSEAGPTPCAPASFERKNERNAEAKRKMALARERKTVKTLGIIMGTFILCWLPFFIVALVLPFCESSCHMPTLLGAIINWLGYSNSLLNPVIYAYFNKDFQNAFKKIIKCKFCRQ

[24] = target: NUAK family SNF1-like kinase 1 (Homo sapiens, UniProt O60285); experiment: NuaK1(NUA1LGF5) Takeda global kinase panel
[25] = target: Ephrin type-A receptor 6 (Homo sapiens, UniProt Q9UF33); experiment: EphA6(EPA6LGI5) Takeda global kinase panel
Ephrin type-A receptor 6, sequence (Q9UF33 whole entry): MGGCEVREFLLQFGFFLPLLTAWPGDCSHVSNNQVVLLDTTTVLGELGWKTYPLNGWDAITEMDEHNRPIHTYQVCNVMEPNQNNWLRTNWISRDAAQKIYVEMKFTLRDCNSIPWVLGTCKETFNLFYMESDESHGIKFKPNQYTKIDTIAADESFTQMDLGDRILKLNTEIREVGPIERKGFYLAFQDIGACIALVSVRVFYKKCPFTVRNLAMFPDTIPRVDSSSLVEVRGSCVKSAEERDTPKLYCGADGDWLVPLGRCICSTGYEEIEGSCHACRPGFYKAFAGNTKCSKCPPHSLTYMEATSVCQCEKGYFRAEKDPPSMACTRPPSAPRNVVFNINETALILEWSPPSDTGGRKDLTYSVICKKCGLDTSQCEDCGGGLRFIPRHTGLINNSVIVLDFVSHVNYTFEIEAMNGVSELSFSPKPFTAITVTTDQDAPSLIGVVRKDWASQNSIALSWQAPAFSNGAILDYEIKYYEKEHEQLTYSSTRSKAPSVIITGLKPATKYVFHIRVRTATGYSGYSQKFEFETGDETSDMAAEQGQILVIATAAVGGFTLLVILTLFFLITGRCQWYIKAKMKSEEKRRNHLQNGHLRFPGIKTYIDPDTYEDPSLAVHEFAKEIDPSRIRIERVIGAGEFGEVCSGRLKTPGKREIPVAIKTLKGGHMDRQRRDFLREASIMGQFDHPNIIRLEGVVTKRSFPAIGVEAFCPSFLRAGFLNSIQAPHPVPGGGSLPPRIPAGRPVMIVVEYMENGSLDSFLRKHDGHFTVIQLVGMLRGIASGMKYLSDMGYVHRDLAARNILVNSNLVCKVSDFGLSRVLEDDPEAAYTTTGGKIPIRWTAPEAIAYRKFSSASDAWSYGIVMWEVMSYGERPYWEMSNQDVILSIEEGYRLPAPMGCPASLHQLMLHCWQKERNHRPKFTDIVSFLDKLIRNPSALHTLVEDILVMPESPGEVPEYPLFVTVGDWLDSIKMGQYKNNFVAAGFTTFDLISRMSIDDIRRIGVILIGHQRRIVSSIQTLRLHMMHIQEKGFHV

[26] = target: Serine/threonine-protein kinase MRCK alpha (Homo sapiens, UniProt Q5VT25); experiment: MRCKalpha(CD4ALGY1) Takeda global kinase panel
[27] = target: Serine/threonine-protein kinase/endoribonuclease IRE1 (Homo sapiens, UniProt O75460); experiment: IRE1(ERN1PHY1) Takeda global kinase panel
Serine/threonine-protein kinase/endoribonuclease IRE1, sequence (O75460 whole entry): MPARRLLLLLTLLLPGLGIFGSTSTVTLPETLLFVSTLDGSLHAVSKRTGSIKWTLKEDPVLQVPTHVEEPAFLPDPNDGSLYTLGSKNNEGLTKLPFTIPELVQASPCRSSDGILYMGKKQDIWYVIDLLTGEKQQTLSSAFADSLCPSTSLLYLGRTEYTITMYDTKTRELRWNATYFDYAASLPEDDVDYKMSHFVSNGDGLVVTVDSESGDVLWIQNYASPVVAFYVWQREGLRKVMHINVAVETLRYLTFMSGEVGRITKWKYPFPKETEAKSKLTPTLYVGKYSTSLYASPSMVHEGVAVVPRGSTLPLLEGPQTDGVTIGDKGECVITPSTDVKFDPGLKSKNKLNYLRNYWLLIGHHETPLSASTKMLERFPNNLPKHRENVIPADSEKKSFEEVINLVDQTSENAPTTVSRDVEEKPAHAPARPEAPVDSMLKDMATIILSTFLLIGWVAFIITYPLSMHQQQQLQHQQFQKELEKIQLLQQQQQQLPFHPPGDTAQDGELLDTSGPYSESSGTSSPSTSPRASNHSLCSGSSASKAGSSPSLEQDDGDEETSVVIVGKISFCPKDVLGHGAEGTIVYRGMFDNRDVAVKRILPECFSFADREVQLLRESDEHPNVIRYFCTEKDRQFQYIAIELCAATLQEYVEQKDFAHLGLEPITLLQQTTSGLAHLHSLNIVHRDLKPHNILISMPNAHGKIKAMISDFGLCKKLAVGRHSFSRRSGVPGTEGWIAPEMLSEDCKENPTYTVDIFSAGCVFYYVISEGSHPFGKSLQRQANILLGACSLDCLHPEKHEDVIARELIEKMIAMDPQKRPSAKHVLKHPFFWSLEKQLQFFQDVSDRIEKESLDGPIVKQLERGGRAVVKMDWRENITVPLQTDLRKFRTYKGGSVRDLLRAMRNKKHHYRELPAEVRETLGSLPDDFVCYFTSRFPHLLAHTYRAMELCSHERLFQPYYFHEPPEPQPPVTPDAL

[28] = target: Receptor-interacting serine/threonine-protein kinase 1 (Mus musculus, UniProt Q60855); experiment: TR-FRET (mouse RIPK1)
Receptor-interacting serine/threonine-protein kinase 1, sequence (Q60855 whole entry): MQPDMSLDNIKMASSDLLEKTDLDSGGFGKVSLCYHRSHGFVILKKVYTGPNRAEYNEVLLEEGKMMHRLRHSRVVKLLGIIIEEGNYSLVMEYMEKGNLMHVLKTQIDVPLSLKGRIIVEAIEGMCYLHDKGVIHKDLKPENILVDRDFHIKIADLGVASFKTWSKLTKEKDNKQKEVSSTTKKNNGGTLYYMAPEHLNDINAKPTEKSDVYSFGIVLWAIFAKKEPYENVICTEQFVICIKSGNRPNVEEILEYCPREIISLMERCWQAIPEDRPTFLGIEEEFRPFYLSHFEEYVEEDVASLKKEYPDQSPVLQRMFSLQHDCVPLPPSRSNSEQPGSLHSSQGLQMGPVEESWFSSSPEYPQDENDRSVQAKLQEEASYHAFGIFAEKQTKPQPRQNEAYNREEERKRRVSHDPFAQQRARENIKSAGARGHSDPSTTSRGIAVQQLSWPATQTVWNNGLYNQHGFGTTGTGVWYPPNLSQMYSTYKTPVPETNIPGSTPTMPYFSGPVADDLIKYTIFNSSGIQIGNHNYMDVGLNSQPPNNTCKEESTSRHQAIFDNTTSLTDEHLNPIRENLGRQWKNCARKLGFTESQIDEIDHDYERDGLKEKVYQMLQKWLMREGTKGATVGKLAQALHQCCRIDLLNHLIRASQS

[29] = target: GABA-A receptor; anion channel (Rattus norvegicus) (UniProt O09028+P15431+P18506+P18508+P19969+P20236+P23574+P23576+P28471+P28473+P30191+P62813+P63079+P63138+Q91ZM7+Q9ES14); experiment: Inhibition of GABAA, Muscimol, Central at 10 µM in the Eurofins-Panlabs radioligand binding assay (Eurofins_assay_226500); assay type: protein-complex assay; settings: Compound concentration 10.0 uM
[30] = target: Cell division cycle 7-related protein kinase (Homo sapiens, UniProt O00311); experiment: CDC7(CDC7CGP1) Takeda global kinase panel
[31] = target: Serine/threonine-protein kinase LATS2 (Homo sapiens, UniProt Q9NRM7); experiment: LATS2(LAT2LGY1) Takeda global kinase panel
Serine/threonine-protein kinase LATS2, sequence (Q9NRM7 whole entry): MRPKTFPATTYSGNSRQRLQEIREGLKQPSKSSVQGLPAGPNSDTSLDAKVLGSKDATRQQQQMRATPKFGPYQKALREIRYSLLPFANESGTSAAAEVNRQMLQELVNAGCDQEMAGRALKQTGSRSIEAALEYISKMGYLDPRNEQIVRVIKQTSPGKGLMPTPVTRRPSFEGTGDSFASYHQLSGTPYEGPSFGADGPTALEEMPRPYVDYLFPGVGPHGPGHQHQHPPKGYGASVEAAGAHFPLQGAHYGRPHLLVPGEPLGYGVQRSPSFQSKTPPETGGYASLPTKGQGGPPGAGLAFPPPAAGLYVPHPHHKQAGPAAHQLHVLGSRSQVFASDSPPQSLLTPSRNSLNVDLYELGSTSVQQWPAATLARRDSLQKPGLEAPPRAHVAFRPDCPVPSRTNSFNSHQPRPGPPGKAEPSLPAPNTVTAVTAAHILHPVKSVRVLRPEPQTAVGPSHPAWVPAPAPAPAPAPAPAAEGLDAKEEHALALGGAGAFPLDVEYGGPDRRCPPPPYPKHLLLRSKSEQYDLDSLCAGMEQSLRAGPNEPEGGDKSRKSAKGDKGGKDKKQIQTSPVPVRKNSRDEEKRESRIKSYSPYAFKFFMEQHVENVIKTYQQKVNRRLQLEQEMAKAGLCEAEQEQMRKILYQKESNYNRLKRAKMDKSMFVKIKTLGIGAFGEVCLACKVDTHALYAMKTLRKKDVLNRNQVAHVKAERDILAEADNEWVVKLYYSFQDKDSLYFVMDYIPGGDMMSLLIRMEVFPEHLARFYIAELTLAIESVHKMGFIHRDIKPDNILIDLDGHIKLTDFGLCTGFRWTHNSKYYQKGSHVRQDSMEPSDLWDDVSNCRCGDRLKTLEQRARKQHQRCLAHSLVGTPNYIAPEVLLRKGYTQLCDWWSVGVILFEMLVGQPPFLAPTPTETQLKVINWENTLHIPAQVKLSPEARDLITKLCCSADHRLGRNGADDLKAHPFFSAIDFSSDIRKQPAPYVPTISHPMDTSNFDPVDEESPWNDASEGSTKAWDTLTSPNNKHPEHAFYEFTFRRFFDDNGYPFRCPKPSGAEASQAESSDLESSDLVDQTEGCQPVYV

[32] = target: Protein kinase C beta type (Homo sapiens, UniProt P05771); experiment: PKCbeta(PRKBPHY3) Takeda global kinase panel
[33] = target: D(1A) dopamine receptor (Homo sapiens) (UniProt P21728); settings: Compound concentration 10.0 uM
D(1A) dopamine receptor (Homo sapiens), sequence (P21728 whole entry, canonical isoform): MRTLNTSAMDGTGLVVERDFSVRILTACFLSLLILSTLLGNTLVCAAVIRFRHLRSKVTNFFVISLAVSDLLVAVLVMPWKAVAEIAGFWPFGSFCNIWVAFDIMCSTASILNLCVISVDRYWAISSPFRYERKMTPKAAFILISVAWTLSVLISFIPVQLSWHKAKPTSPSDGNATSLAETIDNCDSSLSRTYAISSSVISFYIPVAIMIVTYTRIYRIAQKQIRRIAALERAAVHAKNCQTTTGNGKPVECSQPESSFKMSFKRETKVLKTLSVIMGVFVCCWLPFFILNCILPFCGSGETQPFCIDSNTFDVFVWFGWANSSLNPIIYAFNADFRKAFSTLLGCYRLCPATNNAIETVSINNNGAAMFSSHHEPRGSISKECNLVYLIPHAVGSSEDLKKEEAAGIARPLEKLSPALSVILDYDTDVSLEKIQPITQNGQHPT

[34] = target: Phosphatidylinositol 4,5-bisphosphate 3-kinase catalytic subunit delta isoform (Homo sapiens, UniProt O00329); experiment: PI3KCD(PI3DCGRK) Takeda global kinase panel
[35] = target: Sodium-dependent dopamine transporter (Homo sapiens) (UniProt Q01959); settings: Compound concentration 10.0 uM
[36] = target: Serine/threonine-protein kinase Nek1 (Homo sapiens, UniProt Q96PY6); experiment: Nek1(NEK1LGY1) Takeda global kinase panel
[37] = target: PAS domain-containing serine/threonine-protein kinase (Homo sapiens, UniProt Q96RG2); experiment: PASK(PASKPHY1) Takeda global kinase panel

Row | Compound | IC50 [1] [nM] | IC50 [2] [nM] | IC50 [3] [nM] | IC50 [4] [nM] | inhibition [5] [%] | IC50 [6] [nM] | inhibition [7] [%] | IC50 [8] [nM] | IC50 [9] [nM] | IC50 [10] [nM] | IC50 [11] [nM] | IC50 [12] [nM] | IC50 [13] [nM] | IC50 [14] [nM] | IC50 [15] [nM] | IC50 [16] [nM] | IC50 [17] [nM] | IC50 [18] [nM] | IC50 [19] [nM] | IC50 [20] [nM] | further results
1 | CN1C(=O)[C@@H](N2CCc3cn(Cc4ccccc4)nc3C2=O)COc2ccccc21 [TP-030-1] | 1000 | 1000 | 1000 | 1000 | 1 | 1000 | 15 | 1000 | 1000 | 1000 | 1000 | 1000 | 1000 | 1000 | 1000 | 1000 | 1000 | 1000 | 1000 | 1000 | inhibition [21]: 21%; IC50 [22]: 1000 nM; inhibition [23]: -6%; IC50 [24]: 1000 nM; IC50 [25]: 1000 nM; IC50 [26]: 1000 nM; IC50 [27]: 1000 nM; IC50 [28]: 4200 nM (active); inhibition [29]: -1%; IC50 [30]: 1000 nM; IC50 [31]: 1000 nM; IC50 [32]: 1000 nM; inhibition [33]: -4%; IC50 [34]: 1000 nM; inhibition [35]: 29%; IC50 [36]: 1000 nM; IC50 [37]: 1000 nM
2 | CN1C(=O)[C@@H](N2CCc3cn(CC4CCS(=O)(=O)CC4)nc3C2=O)COc2ccccc21 [TP-030n] | 1000 | 1000 | 1000 | 1000 | -3 | 1000 | 0 | 1000 | 1000 | 1000 | 1000 | 1000 | 1000 | 1000 | 1000 | 1000 | 1000 | 1000 | 1000 | 1000 | inhibition [21]: 2%; IC50 [22]: 1000 nM; inhibition [23]: 3%; IC50 [24]: 1000 nM; IC50 [25]: 1000 nM; IC50 [26]: 1000 nM; IC50 [27]: 1000 nM; IC50 [28]: > 10000 nM (not active); inhibition [29]: -7%; IC50 [30]: 1000 nM; IC50 [31]: 1000 nM; IC50 [32]: 1000 nM; inhibition [33]: 7%; IC50 [34]: 1000 nM; inhibition [35]: 10%; IC50 [36]: 1000 nM; IC50 [37]: 1000 nM
